{
  "source": "ChEMBL document CHEMBL4425084",
  "about": "“Development of Heat Shock Protein (Hsp90) Inhibitors To Combat Resistance to Tyrosine Kinase Inhibitors through Hsp90-Kinase Interactions” (J Med Chem, 2016)",
  "key": {"Bcr/Abl fusion protein [1]": {"biological_target": "Bcr/Abl fusion protein (Homo sapiens, UniProt P00519, E255K)", "test": "Inhibition of imatinib-resistant BCR-ABL E255K mutant (unknown origin) expressed in mouse BA/F3 cells assessed as decrease in cell viability after 48 hrs by trypan blue exclusion assay", "type": "cell-based"}, "Bcr/Abl fusion protein [2]": {"biological_target": "Bcr/Abl fusion protein (Homo sapiens, UniProt P00519, T315I)", "test": "Inhibition of imatinib-resistant BCR-ABL T315I mutant (unknown origin) expressed in mouse BA/F3 cells assessed as decrease in cell viability after 48 hrs by trypan blue exclusion assay", "type": "cell-based"}, "Bcr/Abl fusion protein [3]": {"biological_target": "Bcr/Abl fusion protein (Homo sapiens, UniProt P00519)", "test": "Inhibition of BCR-ABL (unknown origin) expressed in mouse BA/F3 cells assessed as decrease in cell viability after 48 hrs by trypan blue exclusion assay", "type": "cell-based"}, "[4]": {"test": "Toxicity in iv dosed NSCLC patient dosed weekly for 3 weeks on four week cycle during phase-1 clinical trial", "type": "organism-based", "settings": "human, in vivo, 504 h"}, "GIST430": {"system": "GIST430", "test": "Cytotoxicity against imatinib-resistant human GIST430 cells assessed as decrease in cell viability after 7 days by alamar blue assay", "type": "functional, cell-based", "settings": "GIST430, 168 h"}, "GIST48": {"system": "GIST48", "test": "Cytotoxicity against imatinib-resistant human GIST48 cells assessed as decrease in cell viability after 7 days by alamar blue assay", "type": "functional, cell-based", "settings": "GIST48, 168 h"}, "[5]": {"test": "Inhibition of E6a/b;A20 EML4-ALK (unknown origin) expressed in human NCI-H2228 cells assessed as decrease in cell viability after 72 hrs by CellTiter-Glo luminescence assay", "settings": "NCI-H2228, 72 h"}, "[6]": {"test": "Cytotoxicity against human NB39 cells assessed as decrease in cell viability after 72 hrs by CellTiter-Glo luminescence assay", "settings": "NB39, 72 h"}, "[7]": {"test": "Inhibition of E13;A20 EML4-ALK variant (unknown origin) expressed in human NCI-H3122 cells assessed as decrease in cell viability after 72 hrs by CellTiter-Glo luminescence assay", "type": "cell-based", "settings": "NCI-H3122, 72 h"}, "cells": {"test": "cells", "settings": "Homo sapiens, BaF3, 24 h"}, "A-375 [8]": {"system": "A-375", "test": "Cytotoxicity against human A375 cells assessed as decrease in cell viability after 72 hrs by CellTiter-Glo luminescence assay", "type": "functional, cell-based", "settings": "A-375, 72 h"}, "A-375 [9]": {"system": "A-375", "test": "animal or person", "settings": "Mus musculus, A-375, iv, read-out: TGI", "description": "Antitumor activity against vemurafenib-resistant human A375 cells xenografted in mouse assessed as tumor growth inhibition at 150 mg/kg, iv dosed as weekly treatment in presence of selumetinib"}, "Mus musculus [10]": {"system": "Mus musculus", "test": "In vivo inhibition of BCR-ABL/T315I mutant expressed in bone marrow cells transplanted in mouse assessed as level of cells expressing gatekeeper mutation at 50 mg/kg once every 2 days measured after 28 days", "type": "functional", "design": "scale not given: the % may be the effect or the level left"}, "NCI-H3122": {"system": "NCI-H3122", "test": "Cytotoxicity against crizotinib-resistant human NCI-H3122 cells assessed as cell growth inhibition after 72 hrs by trypan blue exclusion assay", "type": "functional", "settings": "NCI-H3122, 72 h"}, "HCC827": {"system": "HCC827", "test": "Cytotoxicity against gefitinib-resistant human HCC827 cells assessed as inhibition of cell proliferation by MTS assay", "type": "functional, cell-based"}, "[11]": {"test": "Cytotoxicity against HGF-induced erlotinib-resistant human Ma1 cells assessed as inhibition of cell growth after 72 hrs by MTT assay", "type": "functional, cell-based"}, "PC-9": {"system": "PC-9", "test": "Cytotoxicity against HGF-induced erlotinib-resistant human PC9 cells assessed as inhibition of cell growth after 72 hrs by MTT assay", "type": "functional, cell-based", "settings": "PC-9, 72 h"}, "[12]": {"test": "Toxicity in human H3255 cells expressing L858R EGFR mutant xenografted in mouse administered ip 3 times per week", "type": "organism-based", "settings": "in vivo"}, "[13]": {"test": "Toxicity in human H1975 cells xenografted in mouse administered ip 3 times per week", "type": "organism-based", "settings": "in vivo"}, "[14]": {"test": "Toxicity in human H1650 cells expressing E746-A750 EGFR deletion mutant xenografted in mouse administered ip 3 times per week", "type": "organism-based", "settings": "in vivo"}, "Mus musculus [15]": {"system": "Mus musculus", "test": "In vivo inhibition of BCR-ABL/T315I mutant expressed in bone marrow cells transplanted in mouse assessed as level of cells expressing gatekeeper mutation at 100 mg/kg, bid measured after 15 days", "type": "functional", "design": "scale not given: the % may be the effect or the level left"}},
  "data": [
    {"smiles": "COC1=C2C[C@@H](C)C[C@H](OC)[C@H](O)[C@@H](C)/C=C(\\C)[C@H](OC(N)=O)[C@@H](OC)/C=C\\C=C(/C)C(=O)NC(=CC1=O)C2=O", "note": "[GELDANAMYCIN]", "values": [
      {"measurement": "IC50", "setting": "Bcr/Abl fusion protein [1]", "result": "1000 to 2000", "unit": "nM"},
      {"measurement": "IC50", "setting": "Bcr/Abl fusion protein [2]", "result": "1000 to 2000", "unit": "nM"},
      {"measurement": "IC50", "setting": "Bcr/Abl fusion protein [3]", "result": 5000, "unit": "nM"}
    ]},
    {"smiles": "CC(C)c1cc(C(=O)N2Cc3ccc(CN4CCN(C)CC4)cc3C2)c(O)cc1O", "note": "[ONALESPIB]", "values": [
      {"measurement": "MTD", "setting": "[4]", "result": 260, "unit": "mg/m2"},
      {"measurement": "IC50", "setting": "GIST430", "result": 34, "unit": "nM"},
      {"measurement": "IC50", "setting": "GIST48", "result": 55, "unit": "nM"}
    ]},
    {"smiles": "C[C@@H](Oc1cc(-c2cnn(C3CCNCC3)c2)cnc1N)c1c(Cl)ccc(F)c1Cl", "note": "[CRIZOTINIB]", "values": [
      {"measurement": "IC50", "setting": "[5]", "result": 202, "unit": "nM"},
      {"measurement": "IC50", "setting": "[6]", "result": 240, "unit": "nM"},
      {"measurement": "IC50", "setting": "[7]", "result": 300, "unit": "nM"}
    ]},
    {"smiles": "CC(C)c1cc(-c2n[nH]c(=O)n2-c2ccc3c(ccn3C)c2)c(O)cc1O", "note": "[GANETESPIB]", "values": [
      {"measurement": "IC50", "setting": "cells", "result": 11, "unit": "nM"},
      {"measurement": "IC50", "setting": "[5]", "result": 13, "unit": "nM"},
      {"measurement": "IC50", "setting": "[6]", "result": 10, "unit": "nM"},
      {"measurement": "IC50", "setting": "A-375 [8]", "result": 15, "unit": "nM"},
      {"measurement": "IC50", "setting": "[7]", "result": 10, "unit": "nM"},
      {"measurement": "inhibition in vivo at 150 mg/kg", "setting": "A-375 [9]", "result": 84, "unit": "%"}
    ]},
    {"smiles": "C=CCNc1c(O)cc2c(O)c1C[C@@H](C)C[C@H](OC)[C@H](O)[C@@H](C)/C=C(\\C)[C@H](OC(N)=O)[C@@H](OC)/C=C\\C=C(/C)C(=O)N2.Cl", "note": "[RETASPIMYCIN HYDROCHLORIDE]", "values": [
      {"measurement": "Activity", "setting": "Mus musculus [10]", "result": 0.5, "unit": "%"},
      {"measurement": "GI50", "setting": "NCI-H3122", "result": 76, "unit": "nM"}
    ]},
    {"smiles": "CCNC(=O)c1noc(-c2cc(C(C)C)c(O)cc2O)c1-c1ccc(CN2CCOCC2)cc1", "note": "[LUMINESPIB]", "values": [
      {"measurement": "IC50", "setting": "HCC827", "result": 7, "unit": "nM"}
    ]},
    {"smiles": "CCCS(=O)(=O)Nc1ccc(F)c(C(=O)c2c[nH]c3ncc(-c4ccc(Cl)cc4)cc23)c1F", "note": "[VEMURAFENIB]", "values": [
      {"measurement": "IC50", "setting": "A-375 [8]", "result": 81, "unit": "nM"}
    ]},
    {"smiles": "CO[C@H]1/C=C\\C=C(/C)C(=O)NC2=CC(=O)C(NCCN(C)C)=C(C[C@@H](C)C[C@H](OC)[C@H](O)[C@@H](C)/C=C(\\C)[C@@H]1OC(N)=O)C2=O", "note": "[ALVESPIMYCIN]", "values": [
      {"measurement": "IC50", "setting": "[11]", "result": "10 to 30", "unit": "nM"},
      {"measurement": "IC50", "setting": "PC-9", "result": "10 to 30", "unit": "nM"}
    ]},
    {"smiles": "C=CCNC1=C2C[C@@H](C)C[C@H](OC)[C@H](O)[C@@H](C)/C=C(\\C)[C@H](OC(N)=O)[C@@H](OC)/C=C\\C=C(/C)C(=O)NC(=CC1=O)C2=O", "note": "[TANESPIMYCIN]", "values": [
      {"measurement": "MTD", "setting": "[12]", "result": 75, "unit": "mg/kg"},
      {"measurement": "IC50", "setting": "Bcr/Abl fusion protein [1]", "result": "1000 to 2000", "unit": "nM"},
      {"measurement": "MTD", "setting": "[13]", "result": 75, "unit": "mg/kg"},
      {"measurement": "MTD", "setting": "[14]", "result": 75, "unit": "mg/kg"},
      {"measurement": "IC50", "setting": "Bcr/Abl fusion protein [2]", "result": "1000 to 2000", "unit": "nM"},
      {"measurement": "IC50", "setting": "Bcr/Abl fusion protein [3]", "result": 5000, "unit": "nM"}
    ]},
    {"smiles": "Cc1ccc(NC(=O)c2ccc(CN3CCN(C)CC3)cc2)cc1Nc1nccc(-c2cccnc2)n1", "note": "[IMATINIB]", "values": [
      {"measurement": "Activity", "setting": "Mus musculus [15]", "result": 81.5, "unit": "%"}
    ]}
  ]
}
